CCOc1ccc2ccccc2c1C(=O)N[C@@H]1C(=O)N2[C@@H]1SC(C)(C)[C@@H]2C(=O)[O-].[Na+]
solubility (mole fraction)
Settings	278.15 K	283.15 K	288.15 K	293.15 K	298.15 K	303.15 K	308.15 K	313.15 K	318.15 K
in acetone	4.88e-05	7.1e-05	0.000106	0.000158	0.000202	0.000255	0.000309	0.000353	0.000401
in acetonitrile	2.25e-05	2.97e-05	4.09e-05	6.27e-05	7.46e-05	9.3e-05	0.000111	0.000128	0.000144
in ethanol	0.000161	0.000201	0.000246	0.00032	0.000372	0.000442	0.000509	0.000562	0.000615
in isopropanol	0.000155	0.000177	0.000201	0.000229	0.000261	0.000297	0.000337	0.000367	0.000395
in methanol	0.000605	0.000803	0.00101	0.00121	0.00149	0.00173	0.002	0.00226	0.00251
in n-butyl acetate	2.14e-05	3.21e-05	4.3e-05	5.85e-05	7.24e-05	8.6e-05	9.63e-05	0.000108	0.000117

— BigSolDB 2.1
